Laboratory results: PMC4581723, “Evaluation of In Vitro Activity of the Class I PI3K Inhibitor Buparlisib (BKM120) in Pediatric Bone and Soft Tissue Sarcomas” (PLoS ONE, 2015)
Where two headings read alike, the source gives them in different places.

Experiments:
Assay type in all cases: cell-based
phospho-Akt (S473) = assay: Immunoblot (quantitative) of Akt phosphorylation; conditions: for IC50: 1 h treatment
Experimental: Cells were incubated for approximately one hour on ice in lysis buffer (50 mM Tris pH 7.6, 0.5% NP-40, 10% glycerol, 30 mM NaCl, 1 mM EDTA) supplemented with Complete Mini EDTA-free protease inhibitor cocktail (Roche), 1 mM Na3VO4, and 1 mM NaF. […] Secondary antibodies conjugated to HRP were sheep anti-mouse IgG from GE Healthcare and goat anti-rabbit IgG from Santa Cruz Biotechnology. Secondary antibodies conjugated to infrared dyes were IRDye 800CW goat anti-mouse IgG and IRDye 680RD goat anti-rabbit IgG from LI-COR Biosciences. Fluorescent westerns were imaged using the Odyssey Infrared Imaging System (LI-COR Biosciences). Signals were quantified by measuring the integrated intensity values of each band using Odyssey software (LI-COR Biosciences).
We next evaluated the ability of buparlisib to inhibit cellular signaling downstream of PI3K. Increasing doses were added to cells and phosphorylation of signaling molecules was examined by immunoblot after one hour of treatment (Fig 2A). […] Phospho-Akt levels were normalized to levels of total Akt and fit to dose-response curves to calculate the half maximal inhibitory concentration (IC50) (Fig 2B).
Each data point represents the average of at least three independent experiments.

SK-N-MC = assay: Cell viability assay (MTT), 72 h; conditions: Homo sapiens, SK-N-MC (ES), PIK3CA WT, read-out: Buparlisib cell viability IC50
KHOS 312H = assay: Cell viability assay (MTT), 72 h; conditions: KHOS 312H (OS), read-out: Buparlisib cell viability IC50
KHOS 240S = assay: Cell viability assay (MTT), 72 h; conditions: KHOS 240S (OS), read-out: Buparlisib cell viability IC50
SJCRH30 = assay: Cell viability assay (MTT), 72 h; conditions: SJCRH30 (RMS), PIK3CA WT, read-out: Buparlisib cell viability IC50
cleaved PARP = assay: Immunoblot of PARP cleavage (apoptosis)
Text: The primary antibodies used for these studies were rabbit anti-PTEN, rabbit anti-phospho-Akt (Ser473), rabbit anti-phospho-Akt (Thr308), mouse anti-Akt (pan), rabbit anti-phospho-p44/42 MAPK (Erk1/2) (T202/[…] on Erk1, […]/[…] on Erk2), mouse anti-p44/42 MAPK (Erk1/2), mouse anti-phospho-p70 S6 Kinase (Thr389), rabbit anti-p70 S6 Kinase, rabbit anti-phospho-4E-BP1 (Thr37/46), rabbit anti-4E-BP1, rabbit anti-STAT3 (Y705), mouse anti-STAT3, and rabbit anti-cleaved PARP from Cell Signaling Technology; and mouse anti-β-actin from Sigma. Secondary antibodies conjugated to HRP were sheep anti-mouse IgG from GE Healthcare and goat anti-rabbit IgG from Santa Cruz Biotechnology. Secondary antibodies conjugated to infrared dyes were IRDye 800CW goat anti-mouse IgG and IRDye 680RD goat anti-rabbit IgG from LI-COR Biosciences. Fluorescent westerns were imaged using the Odyssey Infrared Imaging System (LI-COR Biosciences). Signals were quantified by measuring the integrated intensity values of each band using Odyssey software (LI-COR Biosciences). […] This occurs as a result of the ability of buparlisib to inhibit tubulin polymerization at higher concentrations.

RDES = assay: Cell viability assay (MTT), 72 h; conditions: RD-ES, PIK3CA WT, read-out: Buparlisib cell viability IC50
A4573 = assay: Cell viability assay (MTT), 72 h; conditions: A4573 (ES), PIK3CA WT, read-out: Buparlisib cell viability IC50

Nc1cc(C(F)(F)F)c(-c2cc(N3CCOCC3)nc(N3CCOCC3)n2)cn1 [Buparlisib]
IC50 (phospho-Akt (S473); 1 h, 6647 (ES), phospho-Akt S473 normalized to total Akt, read-out: Buparlisib Akt phosphorylation IC50): 568 nM
IC50 (phospho-Akt (S473); 1 h, HOS (OS), phospho-Akt S473 normalized to total Akt, read-out: Buparlisib Akt phosphorylation IC50): 222 nM
IC50 (phospho-Akt (S473); 1 h, KHOS (OS), phospho-Akt S473 normalized to total Akt, read-out: Buparlisib Akt phosphorylation IC50): 109 nM
IC50 (phospho-Akt (S473); 1 h, MNNG (OS), phospho-Akt S473 normalized to total Akt, read-out: Buparlisib Akt phosphorylation IC50): 296 nM
IC50 (phospho-Akt (S473); 1 h, RD (RMS), phospho-Akt S473 normalized to total Akt, read-out: Buparlisib Akt phosphorylation IC50): 166 nM
IC50 (phospho-Akt (S473); 1 h, SJCRH30 (RMS), phospho-Akt S473 normalized to total Akt, read-out: Buparlisib Akt phosphorylation IC50): 200 nM
IC50 (phospho-Akt (S473); 1 h, TC-174 (ES), phospho-Akt S473 normalized to total Akt, read-out: Buparlisib Akt phosphorylation IC50): 313 nM
IC50 (phospho-Akt (S473); 1 h, range over the cell lines tested, largest values in cell lines that lack PTEN expression, read-out: phospho-Akt (S473) IC50, range over cell lines): 64 to 916 nM
IC50 (phospho-Akt (S473); A4573, 1 h, A4573 (ES), phospho-Akt S473 normalized to total Akt, read-out: Buparlisib Akt phosphorylation IC50): 916 nM
IC50 (phospho-Akt (S473); Homo sapiens, A204, 1 h, A204 (RMS), phospho-Akt S473 normalized to total Akt, read-out: Buparlisib Akt phosphorylation IC50): 63.7 nM
IC50 (phospho-Akt (S473); Homo sapiens, MCF7, 1 h, MCF-7 (breast), PIK3CA E545K, phospho-Akt S473 normalized to total Akt, read-out: Buparlisib Akt phosphorylation IC50): 251 nM
IC50 (phospho-Akt (S473); Homo sapiens, TC-32, 1 h, TC-32 (ES), phospho-Akt S473 normalized to total Akt, read-out: Buparlisib Akt phosphorylation IC50): 280 nM
IC50 (phospho-Akt (S473); KHOS-240S, 1 h, KHOS 240S (OS), phospho-Akt S473 normalized to total Akt, read-out: Buparlisib Akt phosphorylation IC50): 198 nM
rapamycin-mediated Akt activation (phospho-Akt (S473); buparlisib added to rapamycin, A4573 cells): reduced rapamycin-mediated Akt activation
Phosphorylation of Akt at serine 473 and threonine 308 (phospho-Akt (S473); increasing doses, one hour of treatment, TC-32, KHOS, RD): inhibited
IC50 (SK-N-MC): 899 nM
IC50 (KHOS 312H): 1590 nM
IC50 (KHOS 240S): 1170 nM
IC50 (SJCRH30): 1000 nM
concentrations resulting in increased PARP cleavage (apoptosis) (cleaved PARP; 24 hours of drug treatment, sarcoma cell lines): greater than 1.0 μM
induction of apoptosis (PARP cleavage) (cleaved PARP; ES cell lines, 24 h): potent induction of apoptosis
induction of apoptosis (PARP cleavage) (cleaved PARP; OS and RMS cell lines, 24 h): modest
apoptosis as measured by PARP cleavage (cleaved PARP; combination with NVP-AEW541, A4573 cells, all dose levels, 24 hours): increased apoptosis
apoptosis (PARP cleavage) (cleaved PARP; combination with rapamycin, A4573 cells, 24 h): did not increase apoptosis
apoptosis as measured by PARP cleavage compared to buparlisib alone (cleaved PARP; combined with trametinib, A673 cells, 24 h): no increase in apoptosis
IC50 (RDES): 1120 nM
IC50 (A4573): 1560 nM
